From patent US12329883B2, “Soft tissue repair implants comprising hydroxybutyrate” (Davol Inc., priority 2017, dated 2025)

Tested on: cathelicidin LL-37 expression
Experiment: cathelicidin LL-37 immunolabeling of primary macrophages exposed for 18 hours to samples
Assay type: cell-based, C57bl/6 mice
Conditions: primary bone marrow-derived macrophages, 18 hours exposure
Method: Primary macrophages were differentiated from mononuclear cells harvested from the bone marrow of C57bl/6 mice. A solution of these primary macrophages was divided into 18 wells, each of which was exposed for 18 hours to one of samples nos. 1-18; i.e., a composition comprising either a species of interest dissolved in cell growth media or a solubilized biological scaffold dissolved in cell growth media. […]
After immunolabeling preparation, images were taken of the counterstained macrophages for three 20× fields for each well using a Zeus live-cell microscope. […] The light exposure time that produced the best images was determined, and the remaining samples were imaged at this light exposure time.
After immunolabeling, each macrophage nucleus appeared blue in the immunolabeling images and cathelicidin LL-37 appeared green. The percentages of macrophages expressing cathelicidin LL-37 shown in FIG. 7 were calculated by dividing the number of cathelicidin LL-37-expressing cells in each image (determined by the number of blue nuclei located in close proximity to green cathelicidin LL-37) by the number of cells in each image (determined by the number of blue nuclei in each image). The identification of cathelicidin LL-37 and cell nuclei in the images was determined with the aid of CellProfiler, a […] software analyzer (available at http://www.cellprofiler.org). […]

**Q.** O=C(O)CCCO [4-hydroxybutyrate] was tested. Which “cathelicidin LL-37 expression (percent of cathelicidin LL-37 expressing cells, FIG. 6 and FIG. 7)” value (Example 1, 4HB 12 mM) did it give?
**A.** Its value is “strongly promoted”.

**Q.** What about the “cathelicidin LL-37 expression (percent of cathelicidin LL-37 expressing cells, FIG. 8 and FIGS. 9-16)” value (Example 2, concentration series of Table 2) of the same compound?
**A.** Its value is “effectively induce”.
